Data on 1 compound can be found in patent publication US20040142317A1, “Use of amino acid transporter atbo,+ as a delivery system for drugs and prodrugs” (priority 2003, published 2004).

The target in one assay is T1, b^0,+AT/rBAT (Mus musculus, UniProt Q9QXA6).
T1 construct: expressed in transfected cells; host or cells: HRPE cells
T1 sequence (Q9QXA6 1-487): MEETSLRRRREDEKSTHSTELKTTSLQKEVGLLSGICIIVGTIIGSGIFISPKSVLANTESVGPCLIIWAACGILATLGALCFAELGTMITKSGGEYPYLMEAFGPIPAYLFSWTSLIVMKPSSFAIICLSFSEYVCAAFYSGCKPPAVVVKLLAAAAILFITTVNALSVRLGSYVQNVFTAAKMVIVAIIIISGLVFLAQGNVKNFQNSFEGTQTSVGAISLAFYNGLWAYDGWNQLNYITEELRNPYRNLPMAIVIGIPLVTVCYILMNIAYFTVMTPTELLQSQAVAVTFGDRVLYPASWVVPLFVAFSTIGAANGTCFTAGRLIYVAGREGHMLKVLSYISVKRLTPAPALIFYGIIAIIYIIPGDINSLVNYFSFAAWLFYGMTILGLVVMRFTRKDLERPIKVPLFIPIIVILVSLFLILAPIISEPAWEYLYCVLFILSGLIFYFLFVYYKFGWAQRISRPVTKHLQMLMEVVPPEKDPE
Description: D-[3H]-serine transport in HRPE cells transfected with transporter cDNA. To be noted: D-[3H]-serine 5 μM. Type of assay: cell-based. As for the experimental part:
(§1) Transport of D-[^3H]-serine (5 μM) was measured in HRPE cells transfected with cDNA of each transporter.
(§2) The present inventors evaluated the function of 10 different amino acid transporter clones with respect to transport of D-serine in heterologous expression systems (FIG. 11). All of these transporters are expressed in the intestinal tract. The list of the transporters tested include three energy-independent, heterodimeric facilitative transporters (L1, L2, and b^0,+), three subtypes of the Na^+-coupled system A (ATA1, ATA2, and ATA3), two subtypes of the Na^+- and H^+-coupled system N (SN1 and SN2), the Na^+-coupled system ATB^0, and the Na^+- and Cl^−-coupled system ATB^0,+. […] The ability to transport D-serine was the highest for the Na^+- and Cl^−-coupled transporter ATB^0,+. ATB^0,+ belongs to the gene family of neurotransmitter transporters whose transport function is energized by multiple driving forces, namely a Na^+ gradient, a Cl^− gradient, and membrane potential. […] Based on the energetics of these two transport systems, ATB^0,+ is expected to play the leading role in this process.

The target of a further assay is T2, SN2 (Homo sapiens, UniProt Q8WUX1).
T2 construct: expressed in transfected cells; host or cells: HRPE cells
The assay is described as above. To be noted: D-[3H]-serine 5 μM. The class given is cell-based. As for the experimental part: as §1, §2

T2 sequence (Q8WUX1 whole entry, species assumed): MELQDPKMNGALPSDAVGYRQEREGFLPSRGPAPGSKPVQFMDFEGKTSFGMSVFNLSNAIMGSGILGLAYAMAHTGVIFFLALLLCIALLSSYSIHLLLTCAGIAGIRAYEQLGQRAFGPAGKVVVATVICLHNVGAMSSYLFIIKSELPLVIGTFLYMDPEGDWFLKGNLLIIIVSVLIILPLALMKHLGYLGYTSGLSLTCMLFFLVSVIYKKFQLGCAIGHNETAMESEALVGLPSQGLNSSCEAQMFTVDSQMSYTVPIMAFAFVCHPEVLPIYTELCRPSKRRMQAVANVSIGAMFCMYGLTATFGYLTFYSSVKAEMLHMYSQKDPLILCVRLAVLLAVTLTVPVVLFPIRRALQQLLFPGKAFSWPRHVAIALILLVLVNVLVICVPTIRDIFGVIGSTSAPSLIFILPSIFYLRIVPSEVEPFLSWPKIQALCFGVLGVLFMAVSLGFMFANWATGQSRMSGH

Take `N[C@H](CO)C(=O)O` [D-Serine, D-serine]: the D-serine transport entry on b^0,+AT/rBAT is “did not exhibit detectable D-serine transport activity”; at SN2, “did not transport D-serine”.
